Values of other authors as cited in PMC7904743, “WIDOCK: a reactive docking protocol for virtual screening of covalent inhibitors” (Journal of Computer-Aided Molecular Design, 2021).
Read-outs that look alike come from different tables or passages of the source.

Columns and labels:
OTUB2 = conditions: experimental actives if % labeling higher than 50%; cited from earlier work
NUDT7 = conditions: protein labeling at 200 μM; experimental actives if % labeling higher than 50%; cited from earlier work
[1] = thiol reactivity, cited from earlier work
[2] = natural log of average rate constant k
[3] = natural logarithm of average rate constant

| SMILES | OTUB2 % labeling (OTUB2) [%] | NUDT7 % labeling (NUDT7) [%] | ln(avg k) [1, 2] | ln(avg k) [1, 3] |
| --- | --- | --- | --- | --- |
| O=C(CCl)N1CCN(Cc2ccc(Br)s2)CC1 [PCM-0102169, O=C(CCl)N1CCN(Cc2ccc(Br)s2)CC1] | 0 | 0 | -15.949 | -15.949 |
| O=C(CCl)Nc1ccccc1C(F)(F)F [PCM-0102170, O=C(CCl)Nc1ccccc1C(F)(F)F] | 0 | 0 | -16.769 | -16.769 |
| Cc1ccc(NC(=O)NC(=O)CCl)c(C)c1 [PCM-0102171, Cc1ccc(NC(=O)NC(=O)CCl)c(C)c1] | 10 | 20 | -15.812 | -15.812 |
| CC(=O)Nc1cccc(NC(=O)CCl)c1 [PCM-0102172, CC(=O)Nc1cccc(NC(=O)CCl)c1] | 0 | 0 | -15.748 | -15.748 |
| COc1ccccc1N1CCN(C(=O)CCl)CC1 [PCM-0102173, COc1ccccc1N1CCN(C(=O)CCl)CC1] | 0 | 0 | -15.826 | -15.826 |
| O=C(CCl)NCc1cccc(Cl)c1 [PCM-0102174, O=C(CCl)NCc1cccc(Cl)c1] | 25 | 0 | -16.752 | -16.752 |
| Cc1cc(NC(=O)CCl)ccc1N1CCCC1 [PCM-0102175, Cc1cc(NC(=O)CCl)ccc1N1CCCC1] | 39 | 13 | -15.490 | -15.490 |
| Cc1ccc(NC(=O)CCl)cc1S(N)(=O)=O [PCM-0102177, Cc1ccc(NC(=O)CCl)cc1S(N)(=O)=O] | 27 | 10 | -15.256 | -15.256 |
| CN(C(=O)CCl)C1CCS(=O)(=O)C1 (centres unmarked) [PCM-0102178, CN(C(=O)CCl)C1CCS(=O)(=O)C1] | 0 | 0 | -15.027 | -15.027 |
| O=C(CCl)Nc1cccc(N2CCCC2=O)c1 [PCM-0102179, O=C(CCl)Nc1cccc(N2CCCC2=O)c1] | 47 | 12 | -15.495 | -15.495 |
| CC(NC(=O)CCl)c1cccs1 (centres unmarked) [PCM-0102180, CC(NC(=O)CCl)c1cccs1] | 55 | 16 | -16.321 | -16.321 |
| O=C(CCl)Nc1cccc(-c2nnc3n2CCCCC3)c1 [PCM-0102181, O=C(CCl)Nc1cccc(-c2nnc3n2CCCCC3)c1] | 0 | 0 | -15.929 | -15.929 |
| Cc1c(C#N)c(NC(=O)CCl)n(C2CCCC2)c1C [PCM-0102183, Cc1c(C#N)c(NC(=O)CCl)n(C2CCCC2)c1C] | 0 | 28 | -15.991 | -15.991 |
| Cc1cccc(N2CCN(C(=O)CCl)CC2)c1 [PCM-0102185, Cc1cccc(N2CCN(C(=O)CCl)CC2)c1] | 0 | 5 | -15.479 | -15.479 |
| O=C(CCl)Nc1nnc(C2CC2)o1 [PCM-0102187, O=C(CCl)Nc1nnc(C2CC2)o1] | 0 | 0 | -17.207 | -17.207 |
| CC(NC(=O)CCl)c1cccc(Cl)c1 (centres unmarked) [PCM-0102190, CC(NC(=O)CCl)c1cccc(Cl)c1] | 37 | 42 | -16.294 | -16.294 |
| O=C(CCl)NCc1ccc(F)cc1 [PCM-0102192, O=C(CCl)NCc1ccc(F)cc1] | 31 | 0 | -16.677 | -16.677 |
